Results reported in PMC6410080 (Viruses, 2019).
Where a name gives a salt, the structure may show the parent alone. Read-outs that look alike come from different tables or passages of the source.

What was measured:
[1] = system: DID-labelled SFV hemifusion/fusion; format: cell-based, Semliki Forest virus; settings: HeLa Kyoto, 10 μM (20 μM Raloxifene; Bafilomycin 100 nM), 40 min at 37 °C
[2] = system: Renilla luciferase expression (protein synthesis); format: cell-based
viruses/VLPs tested = format: cell-based
VSV VLP = assay: microbe, parasite or virus in culture; format: cell-based, vesicular stomatitis virus; settings: read-out: IC50 VSV
HeLa Kyoto cells [3] = system: HeLa Kyoto cells
SINV = assay: microbe, parasite or virus in culture; format: cell-based, Sindbis virus; settings: read-out: IC50 SINV
RABV VLP = assay: microbe, parasite or virus in culture; format: cell-based, rabies virus; settings: read-out: IC50 RABV
in vitro [4] = settings: human
DENV-2 = DENV-2 infection assay / secondary screen (E protein staining); format: cell-based, dengue virus serotype 2; settings: for inhibition at 10 µM: read-out: % inhibition (DENV-2 screen)
HCV = assay: microbe, parasite or virus in culture; format: cell-based, hepatitis C virus
Huh7 cells [5] = settings: human
YF17D = assay: organism not typed; format: cell-based, yellow fever 17D
in vitro [6] = settings: human, % viability (SFV screen)
H5N1 VLP = assay: microbe, parasite or virus in culture; format: cell-based, influenza H5N1; settings: for IC50: Influenza A virus, H5N1, HeLa Kyoto, 48 h, read-out: IC50 H5N1
EBOV VLP = assay: microbe, parasite or virus in culture; format: cell-based, Ebola virus
ZIKV [7] = assay: microbe, parasite or virus in culture; format: cell-based, Zika virus
HIV-1 = assay: microbe, parasite or virus in culture; format: cell-based, human immunodeficiency virus type 1; settings: read-out: IC50 HIV
DENV-1 = assay: microbe, parasite or virus in culture; format: cell-based, dengue virus
HSV-1 = assay: microbe, parasite or virus in culture; format: cell-based, herpes simplex virus 1
SFV [8] = assay: microbe, parasite or virus in culture; format: cell-based, Semliki Forest virus; settings: for IC50: read-out: IC50 SFV (7 h); for inhibition at 10 µM: M-HeLa, 7 h, read-out: % inhibition (SFV screen); for % inhibition (SFV screen): 10 µM
SFV [9] = format: cell-based, Semliki Forest virus
Huh7 cells [10] = assay: MTT assay, Huh7 cells; settings: for TC50 DENV-2 (7 + 17 h): Huh7, compounds 7 h then compound-free media 17 h; for TC50 DENV-2 (24 h): Huh7, compounds 24 h
Huh7 cells [11] = settings: 10 µM
HeLa Kyoto cells [12] = settings: 10 µM
VACV = assay: microbe, parasite or virus in culture; format: cell-based, vaccinia virus; settings: read-out: IC50 VACV
DENV-3 = assay: microbe, parasite or virus in culture; format: cell-based, dengue virus
ZIKV [13] = settings: AG129 mice
[14] = Vesicular stomatitis virus, HeLa Kyoto, 24 h
[15] = Lyssavirus rabies, HeLa Kyoto, 24 h
[16] = Dengue virus, DENV2, Huh-7, 24 h
[17] = Dengue virus, DENV2, Huh-7, 24 h, read-out: IC50 DENV-2 (7 + 17 h)
[18] = Dengue virus, DENV2, Huh-7, 24 h, read-out: IC50 DENV-2 (24 h)
[19] = Hepatitis C virus, Huh7.5, read-out: IC50 HCV
[20] = Zika virus, Huh-7, read-out: IC50 ZIKV
[21] = Human immunodeficiency virus 1, 24 h
[22] = Dengue virus, DENV1, Huh-7, read-out: IC50 DENV-1
[23] = Semliki Forest virus, HeLa Kyoto

CO/C1=C\C(C)=C\[C@@H](C)[C@@H](O)[C@@H](C)C/C(C)=C/C=C/[C@H](OC)[C@@H]([C@@H](C)[C@@H](O)[C@H](C)[C@@]2(O)C[C@@H](O)[C@H](C)[C@@H](C(C)C)O2)OC1=O [Bafilomycin]
Inhibition of DID-SFV de-quenching (in words) [1]: Strong inhibition of de-quenching

CNc1ccc2oc(C[C@H]3O[C@@]4(CC[C@H]3C)O[C@H]([C@H](C)C(=O)c3ccc[nH]3)[C@H](C)C[C@H]4C)nc2c1C(=O)O [Calcimycin]
Decrease of Renilla signal (protein synthesis) [2]: more than 50% | Inhibition of protein synthesis at lower concentrations [2]: lose their inhibitory activity on protein synthesis | Viruses Inhibited (viruses/VLPs tested): All tested | IC50 (VSV VLP; [14]): 0.1 µM | TC50 SFV (7 h) (HeLa Kyoto cells [3]; human): 4.1 µM | TC50 SFV (7h) (HeLa Kyoto cells [3]; human): 4100 µM | IC50 (SINV; Sindbis virus, HeLa Kyoto): 2.1 µM | IC50 (RABV VLP; [15]): 0.7 µM | viability at 10 µM (in vitro [4]): 40% | inhibition at 10 µM (DENV-2; [16]): 100% | IC50 (DENV-2; [17]): 4.4 µM | IC50 (DENV-2; [18]): 0.38 µM | IC50 (HCV; [19]): 1.45 µM | TC50 DENV-2 (7 + 17 h) (Huh7 cells [5]): >50 µM | TC50 DENV-2 (24 h) (Huh7 cells [5]): 6.7 µM | IC50 (YF17D; Huh-7, read-out: IC50 YF17D): 0.4 µM | viability at 10 µM (in vitro [6]): 34.4% | IC50 (H5N1 VLP): 0.4 µM | IC50 (EBOV VLP; Zaire ebolavirus, HeLa Kyoto, 48 h, read-out: IC50 EBOV): 0.5 µM | IC50 (ZIKV [7]; [20]): 17.1 µM | IC50 (HIV-1; [21]): 2.5 µM | IC50 (DENV-1; [22]): 4.3 µM | IC50 (HSV-1; Human alphaherpesvirus 1, Vero, 8 h, read-out: IC50 HSV (Vero)): < 0.5 µM | IC50 (SFV [8]; [23]): 0.6 µM | inhibition at 10 µM (SFV [8]; Semliki Forest virus): 91.4%

Cc1ccc(S(=O)(=O)N[C@@H](Cc2ccccc2)C(=O)CCl)cc1 [N-p-Tosyl-L-PCK, N-p-Tosyl-L-phenylalanine chloromethyl ketone]
Decrease of Renilla signal (protein synthesis) [2]: more than 50% | Inhibition of protein synthesis at lower concentrations [2]: partially inhibits protein synthesis but not virus infection | Activity when added before SFV or 30 and 60 min after internalisation (SFV [9]): act exclusively before (or at the stage of) fusion | Time of Addition (SFV [9]): Before fusion | TC50 DENV-2 (7 + 17 h) (Huh7 cells [10]): 24.2 µM | TC50 DENV-2 (24 h) (Huh7 cells [10]): 31.7 µM | Viruses Inhibited (viruses/VLPs tested): Unclear pattern | IC50 (VSV VLP): 11.5 µM | % viability (DENV-2 screen) (Huh7 cells [11]): 58.91% | TC50 SFV (7 h) (HeLa Kyoto cells [3]): 42.7 µM | TC50 SFV (7h) (HeLa Kyoto cells [3]): 42700 µM | % viability (SFV screen) (HeLa Kyoto cells [12]): 95.24% | IC50 (SINV): 11.9 µM | IC50 (RABV VLP): 15 µM | IC50 (VACV): 14.4 µM | % inhibition (DENV-2 screen) (DENV-2; 10 µM, Huh7, MOI 1, 24 h, compared to DMSO-treated controls): 60.35% | IC50 (DENV-2; Huh7, compounds 7 h then media replaced for 17 h, read-out: IC50 DENV-2 (7 + 17 h)): 19.6 µM | IC50 (DENV-2; Huh7, compounds for entire 24 h, read-out: IC50 DENV-2 (24 h)): 7.5 µM | IC50 (HCV; read-out: IC50 HCV): ~13 µM | IC50 (YF17D; read-out: IC50 YF17D): 4.6 µM | IC50 H5N1 (H5N1 VLP): No inhibition | IC50 EBOV (EBOV VLP): No inhibition | IC50 (ZIKV [7]; read-out: IC50 ZIKV): 24.3 µM | IC50 (HIV-1): 12.5 µM | IC50 (DENV-1; read-out: IC50 DENV-1): 25.6 µM | IC50 HSV (Vero) (HSV-1): No inhibition | IC50 (DENV-3; read-out: IC50 DENV-3): 24.2 µM | % inhibition (SFV screen) (SFV [8]): 82.34% | IC50 (SFV [8]): 10.7 µM

CCCCc1oc2ccccc2c1C(=O)c1cc(I)c(OCCN(CC)CC)c(I)c1 [Amiodarone, Amiodarone hydrochloride]
Activity when added before SFV or 30 and 60 min after internalisation (SFV [9]): act exclusively before (or at the stage of) fusion | Time of Addition (SFV [9]): Before fusion | TC50 DENV-2 (7 + 17 h) (Huh7 cells [10]): 40.6 µM | TC50 DENV-2 (24 h) (Huh7 cells [10]): ~25.5 µM | Viruses Inhibited (viruses/VLPs tested): Endosomal pH-dep. | Inhibition of DID-SFV de-quenching (in words) [1]: Intermediate levels of inhibition | inhibition at 10 µM (DENV-2; [16]): 92.9% | inhibition at 10 µM (SFV [8]; Semliki Forest virus): 85.5%

C=C1C(=O)O[C@H]2[C@H]1CC/C(C)=C/CC[C@@]1(C)O[C@@H]21 [Parthenolide]
Activity when added before SFV or 30 and 60 min after internalisation (SFV [9]): minor but reproducible decrease in activity | Time of Addition (SFV [9]): Before and after fusion | Viruses Inhibited (viruses/VLPs tested): Unclear pattern | IC50 (VSV VLP; [14]): 2.6 µM | TC50 SFV (7 h) (HeLa Kyoto cells [3]; human, 7 h): 11.7 µM | TC50 SFV (7h) (HeLa Kyoto cells [3]; human, 7 h): 11700 µM | % viability (SFV screen) (HeLa Kyoto cells [12]; human): 74.22% | IC50 (SINV; Sindbis virus, HeLa Kyoto): 3.2 µM | IC50 (RABV VLP; [15]): 3.8 µM | IC50 (VACV; Orthopoxvirus vaccinia, HeLa Kyoto, 8 h): 5 µM | viability at 10 µM (in vitro [4]): 71.4% | inhibition at 10 µM (DENV-2; [16]): 91.2% | IC50 (DENV-2; [17]): 12.2 µM | IC50 (DENV-2; [18]): 7.5 µM | IC50 (HCV; [19]): 5.6 µM | TC50 DENV-2 (7 + 17 h) (Huh7 cells [5]): 35.8 µM | TC50 DENV-2 (24 h) (Huh7 cells [5]; 24 h): 11.9 µM | IC50 (YF17D; Huh-7, read-out: IC50 YF17D): 6.4 µM | viability at 10 µM (in vitro [6]): 56.8% | IC50 (H5N1 VLP): 19.4 µM | IC50 EBOV (EBOV VLP): Toxic | IC50 (ZIKV [7]; [20]): 6.1 µM | IC50 (HIV-1; [21]): 3.7 µM | IC50 (DENV-1; [22]): 10 µM | IC50 HSV (Vero) (HSV-1; virus, Vero cells, 8 h): No inhibition | IC50 (DENV-3; Dengue virus, DENV3, Huh-7, read-out: IC50 DENV-3): 15.8 µM | % inhibition (SFV screen) (SFV [8]): 98.23% | IC50 (SFV [8]; [23]): 3.3 µM | inhibition at 10 µM (SFV [8]; Semliki Forest virus): 101%

CC(C)OC(=O)[C@H](C)N[P@](=O)(OC[C@H]1O[C@@H](n2ccc(=O)[nH]c2=O)[C@](C)(F)[C@@H]1O)Oc1ccccc1 [Sofosbuvir]
Infectious virus in the blood at day 7 p.i. (ZIKV [13]; immunofocus assay): cleared infectious virus from the blood by day 7 | ZIKV blood titres at day 1 p.i. (ZIKV [13]; qRT-PCR and immunofocus assay, vs untreated): significantly reduced blood titres
